# pKd: −log10 of the molar value. The source made the active and inactive calls. Cut-off read from the data, not from the text of the source, for most assays here: actives have a measured Kd and inactives only a lower limit.
# Columns and labels:
# [1] = target: Dual specificity protein kinase CLK1 (Homo sapiens, UniProt P49759)
# [2] = target: T1, Very long-chain specific acyl-CoA dehydrogenase, mitochondrial (Homo sapiens, UniProt P49748)
# T1 sequence (P49748 whole entry): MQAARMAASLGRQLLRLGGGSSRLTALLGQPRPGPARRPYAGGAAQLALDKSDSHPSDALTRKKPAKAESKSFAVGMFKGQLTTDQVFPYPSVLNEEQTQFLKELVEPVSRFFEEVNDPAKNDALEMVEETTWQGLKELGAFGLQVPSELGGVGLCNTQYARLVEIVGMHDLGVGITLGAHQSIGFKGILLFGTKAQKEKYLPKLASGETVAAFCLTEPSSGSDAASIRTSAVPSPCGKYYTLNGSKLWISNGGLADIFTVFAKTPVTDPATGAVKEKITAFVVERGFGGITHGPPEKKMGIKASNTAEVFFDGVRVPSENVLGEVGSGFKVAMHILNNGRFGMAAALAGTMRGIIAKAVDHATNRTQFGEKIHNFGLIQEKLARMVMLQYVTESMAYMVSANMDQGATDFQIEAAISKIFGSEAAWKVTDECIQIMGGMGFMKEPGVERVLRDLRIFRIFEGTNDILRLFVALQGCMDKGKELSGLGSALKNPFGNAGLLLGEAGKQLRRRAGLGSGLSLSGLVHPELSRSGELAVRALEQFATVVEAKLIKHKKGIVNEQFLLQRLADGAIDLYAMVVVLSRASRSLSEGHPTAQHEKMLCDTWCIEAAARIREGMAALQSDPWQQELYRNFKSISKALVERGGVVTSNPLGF
# dCTP pyrophosphatase 1 = target: T2, dCTP pyrophosphatase 1 (Homo sapiens, UniProt Q9H773)
# T2 sequence (Q9H773 whole entry): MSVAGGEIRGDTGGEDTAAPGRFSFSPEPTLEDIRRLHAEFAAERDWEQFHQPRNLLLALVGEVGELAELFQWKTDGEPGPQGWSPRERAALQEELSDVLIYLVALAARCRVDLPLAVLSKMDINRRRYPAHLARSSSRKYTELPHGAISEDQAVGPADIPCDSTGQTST
# [3] = target: Protein kinase C alpha type (Homo sapiens, UniProt P17252)
# [4] = target: Maternal embryonic leucine zipper kinase (Homo sapiens, UniProt Q14680)
# Chain of Maternal embryonic leucine zipper kinase (Q14680 whole entry): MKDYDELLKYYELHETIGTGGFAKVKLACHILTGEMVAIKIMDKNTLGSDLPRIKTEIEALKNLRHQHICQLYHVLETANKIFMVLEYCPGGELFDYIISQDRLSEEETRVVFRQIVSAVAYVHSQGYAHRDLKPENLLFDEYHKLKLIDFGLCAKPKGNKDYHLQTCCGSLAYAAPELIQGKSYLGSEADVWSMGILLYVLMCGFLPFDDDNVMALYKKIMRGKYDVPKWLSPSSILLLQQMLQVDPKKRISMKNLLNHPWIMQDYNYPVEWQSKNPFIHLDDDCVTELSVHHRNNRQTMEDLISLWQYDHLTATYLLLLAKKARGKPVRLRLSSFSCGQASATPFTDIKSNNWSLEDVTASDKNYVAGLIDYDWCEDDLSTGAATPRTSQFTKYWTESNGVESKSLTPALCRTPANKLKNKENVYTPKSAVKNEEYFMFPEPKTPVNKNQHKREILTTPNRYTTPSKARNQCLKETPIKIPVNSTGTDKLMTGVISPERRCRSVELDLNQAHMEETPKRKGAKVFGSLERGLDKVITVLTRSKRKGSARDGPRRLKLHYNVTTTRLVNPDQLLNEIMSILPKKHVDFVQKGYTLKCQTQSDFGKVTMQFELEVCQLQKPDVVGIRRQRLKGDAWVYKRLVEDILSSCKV
# Midasin = Midasin (Homo sapiens, UniProt Q9NU22)
# [5] = target: Receptor-interacting serine/threonine-protein kinase 3 (Homo sapiens, UniProt Q9Y572)
# Chain of Receptor-interacting serine/threonine-protein kinase 3 (Q9Y572 whole entry): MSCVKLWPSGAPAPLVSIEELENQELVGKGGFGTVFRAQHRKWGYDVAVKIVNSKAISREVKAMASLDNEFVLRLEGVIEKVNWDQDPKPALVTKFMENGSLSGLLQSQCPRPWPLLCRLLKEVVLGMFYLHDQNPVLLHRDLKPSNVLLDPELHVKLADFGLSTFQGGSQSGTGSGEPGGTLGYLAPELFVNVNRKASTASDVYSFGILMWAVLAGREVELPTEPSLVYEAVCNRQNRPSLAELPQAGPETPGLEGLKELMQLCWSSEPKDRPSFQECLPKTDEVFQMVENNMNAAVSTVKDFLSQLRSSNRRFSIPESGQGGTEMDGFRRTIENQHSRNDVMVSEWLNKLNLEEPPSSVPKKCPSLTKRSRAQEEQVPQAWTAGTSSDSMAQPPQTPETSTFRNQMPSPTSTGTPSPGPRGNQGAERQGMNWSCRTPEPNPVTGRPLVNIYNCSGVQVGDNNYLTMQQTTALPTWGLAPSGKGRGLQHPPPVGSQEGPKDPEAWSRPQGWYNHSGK
# [6] = target: T3, NUAK family SNF1-like kinase 2 (Homo sapiens, UniProt Q9H093)
# T3 sequence (Q9H093 whole entry): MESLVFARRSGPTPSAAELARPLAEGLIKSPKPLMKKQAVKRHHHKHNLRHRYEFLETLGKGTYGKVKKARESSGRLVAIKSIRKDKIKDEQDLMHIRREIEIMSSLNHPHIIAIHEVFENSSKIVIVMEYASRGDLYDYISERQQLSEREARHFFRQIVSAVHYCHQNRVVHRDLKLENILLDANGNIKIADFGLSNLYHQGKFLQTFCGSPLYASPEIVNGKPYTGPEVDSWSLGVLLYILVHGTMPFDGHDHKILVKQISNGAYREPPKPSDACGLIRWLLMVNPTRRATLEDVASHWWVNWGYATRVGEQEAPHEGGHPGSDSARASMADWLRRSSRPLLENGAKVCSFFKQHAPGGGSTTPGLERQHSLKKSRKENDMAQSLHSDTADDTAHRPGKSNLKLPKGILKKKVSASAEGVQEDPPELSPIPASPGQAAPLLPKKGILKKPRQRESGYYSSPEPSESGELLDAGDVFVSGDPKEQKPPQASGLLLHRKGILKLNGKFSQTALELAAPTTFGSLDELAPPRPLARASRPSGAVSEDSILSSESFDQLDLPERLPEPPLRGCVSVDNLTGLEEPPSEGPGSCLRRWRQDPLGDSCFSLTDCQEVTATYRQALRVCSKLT
# [7] = target: T4, Discoidin domain-containing receptor 2 (Homo sapiens, UniProt Q16832)
# T4 sequence (Q16832 whole entry): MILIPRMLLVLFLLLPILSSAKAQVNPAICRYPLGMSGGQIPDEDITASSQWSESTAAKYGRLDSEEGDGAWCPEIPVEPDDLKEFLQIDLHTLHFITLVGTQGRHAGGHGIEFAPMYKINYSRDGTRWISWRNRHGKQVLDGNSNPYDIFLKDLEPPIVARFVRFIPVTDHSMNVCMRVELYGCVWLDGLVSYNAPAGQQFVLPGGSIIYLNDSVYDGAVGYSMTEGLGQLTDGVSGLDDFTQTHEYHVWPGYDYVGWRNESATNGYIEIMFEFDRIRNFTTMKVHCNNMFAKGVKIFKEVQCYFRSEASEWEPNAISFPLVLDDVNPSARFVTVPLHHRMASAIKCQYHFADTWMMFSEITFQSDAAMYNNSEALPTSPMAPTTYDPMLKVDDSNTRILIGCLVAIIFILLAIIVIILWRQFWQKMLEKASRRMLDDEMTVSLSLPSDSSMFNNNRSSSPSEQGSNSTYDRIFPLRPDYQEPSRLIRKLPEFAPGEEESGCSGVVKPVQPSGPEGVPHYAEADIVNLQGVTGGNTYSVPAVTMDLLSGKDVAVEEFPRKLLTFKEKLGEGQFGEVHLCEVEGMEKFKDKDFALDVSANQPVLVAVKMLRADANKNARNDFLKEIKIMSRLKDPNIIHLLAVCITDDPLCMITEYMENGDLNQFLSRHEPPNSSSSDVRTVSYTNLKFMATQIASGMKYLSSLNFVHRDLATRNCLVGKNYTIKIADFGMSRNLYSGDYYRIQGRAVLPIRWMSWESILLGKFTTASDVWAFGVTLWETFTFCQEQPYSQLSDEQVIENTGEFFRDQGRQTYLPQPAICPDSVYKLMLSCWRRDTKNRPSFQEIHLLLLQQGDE
# Note: in the data inactive means no Kd found up to 30 µM.
# Chain of Dual specificity protein kinase CLK1 (P49759 whole entry): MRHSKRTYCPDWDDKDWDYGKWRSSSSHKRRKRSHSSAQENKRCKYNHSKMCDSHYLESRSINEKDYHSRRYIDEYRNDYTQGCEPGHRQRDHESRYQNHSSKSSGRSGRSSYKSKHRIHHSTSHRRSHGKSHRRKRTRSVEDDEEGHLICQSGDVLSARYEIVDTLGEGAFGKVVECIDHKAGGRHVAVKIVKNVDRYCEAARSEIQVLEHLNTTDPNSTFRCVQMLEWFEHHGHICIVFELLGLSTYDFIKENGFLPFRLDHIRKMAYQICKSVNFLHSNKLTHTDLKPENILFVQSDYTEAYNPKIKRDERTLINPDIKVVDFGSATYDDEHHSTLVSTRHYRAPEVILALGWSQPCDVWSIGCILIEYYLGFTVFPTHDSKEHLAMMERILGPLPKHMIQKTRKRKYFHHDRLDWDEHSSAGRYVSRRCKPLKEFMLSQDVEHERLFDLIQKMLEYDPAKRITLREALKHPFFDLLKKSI
Kd [1],Kd [2],Kd (dCTP pyrophosphatase 1),Kd [3],Kd [4],pKd (Midasin),Kd [5],Kd [6],Kd [7],Kd (Midasin),SMILES
> 30 µM (inactive),> 30 µM (inactive),> 30 µM (inactive),> 30 µM (inactive),0.918 µM (active),5.88,> 30 µM (inactive),–,–,–,CCNC(=O)C#Cc1ccc2c(c1)NC(=O)/C2=C(\Nc1ccc(CN(C)C)cc1)c1ccccc1
> 30 µM (inactive),> 30 µM (inactive),> 30 µM (inactive),> 30 µM (inactive),> 30 µM (inactive),–,> 30 µM (inactive),> 30 µM (inactive),> 30 µM (inactive),> 30 µM (inactive),C=CC(=O)N1CCC[C@H](n2c(=O)n(-c3ccc(Oc4ccccc4)cc3)c3c(N)ncnc32)C1
> 30 µM (inactive),> 30 µM (inactive),> 30 µM (inactive),21.8 µM (active),8.21 µM (active),–,2.38 µM (active),> 30 µM (inactive),0.139 µM (active),> 30 µM (inactive),Cc1nc2cc(-c3nn(C(C)C)c4ncnc(N)c34)ccc2o1
> 30 µM (inactive),> 30 µM (inactive),> 30 µM (inactive),> 30 µM (inactive),> 30 µM (inactive),–,> 30 µM (inactive),> 30 µM (inactive),3.25 µM (active),> 30 µM (inactive),COCc1c(-c2ccc(NC(=O)Nc3cc(C(F)(F)F)ccc3F)c(F)c2)c2c(N)ncnn2c1CN1CCOCC1
> 30 µM (inactive),> 30 µM (inactive),> 30 µM (inactive),> 30 µM (inactive),> 30 µM (inactive),–,> 30 µM (inactive),> 30 µM (inactive),> 30 µM (inactive),> 30 µM (inactive),Cc1nc(NC(=O)N2CCC[C@H]2C(N)=O)sc1-c1ccnc(C(C)(C)C(F)(F)F)c1 [ALPELISIB]
2.46 µM (active),> 30 µM (inactive),> 30 µM (inactive),> 30 µM (inactive),> 30 µM (inactive),–,> 30 µM (inactive),> 30 µM (inactive),0.298 µM (active),–,Cc1csc(-c2nnc(Nc3ccc(Oc4ncccc4-c4ccnc(N)n4)cc3)c3ccccc23)c1 [AMG-900]
> 30 µM (inactive),> 30 µM (inactive),> 30 µM (inactive),> 30 µM (inactive),> 30 µM (inactive),–,> 30 µM (inactive),> 30 µM (inactive),> 30 µM (inactive),> 30 µM (inactive),C=CC(=O)Nc1cc2c(Nc3ccc(F)c(Cl)c3)ncnc2cc1C#CC(C)(C)N1CCN(C)CC1 [AV-412 FREE BASE]
> 30 µM (inactive),> 30 µM (inactive),> 30 µM (inactive),> 30 µM (inactive),> 30 µM (inactive),–,> 30 µM (inactive),> 30 µM (inactive),> 30 µM (inactive),> 30 µM (inactive),Cc1cc(C(=O)NOCCO)c(Nc2ccc(I)cc2F)n(C)c1=O [AZD-8330]
0.008 µM (active),> 30 µM (inactive),1.59 µM (active),> 30 µM (inactive),–,–,> 30 µM (inactive),> 30 µM (inactive),4.29 µM (active),> 30 µM (inactive),CNC(=O)c1nn(C)c2c1C(C)(C)Cc1cnc(Nc3ccc(N4CCN(C)CC4)cc3)nc1-2 [MILCICLIB]
> 30 µM (inactive),> 30 µM (inactive),> 30 µM (inactive),> 30 µM (inactive),–,–,> 30 µM (inactive),> 30 µM (inactive),0.669 µM (active),> 30 µM (inactive),NC(=O)c1c(OCc2c(F)cc(Br)cc2F)nsc1NC(=O)NCCCCN1CCCC1 [OSI-632]
> 30 µM (inactive),> 30 µM (inactive),> 30 µM (inactive),> 30 µM (inactive),–,–,> 30 µM (inactive),0.024 µM (active),> 30 µM (inactive),> 30 µM (inactive),CC(=O)NCC(=O)N1[C@@H]2CC[C@H]1c1ccc(Nc3ncc(C(F)(F)F)c(NC4CCC4)n3)cc12 [PF-03814735]
> 30 µM (inactive),> 30 µM (inactive),> 30 µM (inactive),> 30 µM (inactive),> 30 µM (inactive),–,> 30 µM (inactive),–,> 30 µM (inactive),> 30 µM (inactive),CO[C@H]1C[C@@H]2CC[C@@H](C)[C@@](O)(O2)C(=O)C(=O)N2CCCC[C@H]2C(=O)O[C@H]([C@H](C)C[C@@H]2CC[C@@H](O)[C@H](OC)C2)CC(=O)[C@H](C)/C=C(\C)[C@@H](O)[C@@H](OC)C(=O)[C@H](C)C[C@H](C)/C=C/C=C/C=C/1C [SIROLIMUS]
> 30 µM (inactive),> 30 µM (inactive),> 30 µM (inactive),> 30 µM (inactive),> 30 µM (inactive),–,> 30 µM (inactive),–,> 30 µM (inactive),> 30 µM (inactive),O=C1NC(=O)[C@@H](c2cn3c4c(cccc24)CCC3)[C@@H]1c1c[nH]c2ccccc12 [TIVANTINIB]
0.942 µM (active),> 30 µM (inactive),> 30 µM (inactive),> 30 µM (inactive),> 30 µM (inactive),–,1.8 µM (active),–,0.227 µM (active),> 30 µM (inactive),C[C@@H](NC(=O)c1ncnc(N)c1Cl)c1ncc(C(=O)Nc2cc(C(F)(F)F)c(Cl)cn2)s1 [TOVORAFENIB]

SMILES,Kd [1],Kd [2],Kd (dCTP pyrophosphatase 1),Kd [3],Kd [4],pKd (Midasin),Kd [5],Kd [6],Kd [7],Kd (Midasin)
NC(=O)Nc1cc(-c2cccc(F)c2)sc1C(=O)N[C@H]1CCCNC1 [AZD-7762],> 30 µM (inactive),> 30 µM (inactive),> 30 µM (inactive),> 30 µM (inactive),4.53 µM (active),–,> 30 µM (inactive),–,> 30 µM (inactive),> 30 µM (inactive)
CNC(=O)c1cc(Oc2ccc(NC(=O)Nc3cc(C(C)(C)C)nn3-c3ccc4ncccc4c3)c(F)c2)ccn1 [REBASTINIB],2.14 µM (active),> 30 µM (inactive),> 30 µM (inactive),> 30 µM (inactive),> 30 µM (inactive),–,1.28 µM (active),> 30 µM (inactive),–,> 30 µM (inactive)
CN1CCN(CCOc2cc(OC3CCOCC3)c3c(Nc4c(Cl)ccc5c4OCO5)ncnc3c2)CC1 [SARACATINIB],> 30 µM (inactive),> 30 µM (inactive),> 30 µM (inactive),> 30 µM (inactive),> 30 µM (inactive),–,1.77 µM (active),> 30 µM (inactive),–,> 30 µM (inactive)
